Source: US20120302614A1, “METHOD FOR IMPROVING CEREBRAL CIRCULATION OR TREATING A CEREBRAL BLOOD FLOW DISORDER” (OSAKA UNIVERSITY, priority 2007, published 2012)
“Also recorded” adds a separate entry of the source.

Assays:
[1] = test system: Aβ injection model (Aβ 1-40 administered intracerebroventricularly); assay: Morris water maze test in Aβ injection model, Test Example 1; assay type: in vivo, ddY mouse; details: oral administration for four weeks in advance of Aβ 1-40
Method: The therapeutic effect of olmesartan medoxomil in Aβ injection model and the dose dependency thereof were examined according to the following experimental schedule. [Experimental Schedule]: Prior to the experiment, 8-week old male ddY mice were administered olmesartan medoxomil (0.5 mg/kg/day, 1 mg/kg/day, 3 mg/kg/day or 6 mg/kg/day) or distilled water orally for four weeks (day −28 to −1). Then, Aβ 1-40 was administered to the mice intracerebroventricularly (day 0). (Although Aβ 1-40 was administered into one of the lateral ventricles in WO 2006/059777, Aβ 1-40 was administered in Test Example 1 to both lateral ventricles with an interval of one day between two administrations. Except for this point, Aβ 1-40 administration was performed in the same manner as in WO 2006/059777.) From one week thereafter, a behavioral test to evaluate cognitive function (Morris water maze test; Morris R et al., J Neuroscience Methods 1984, 11, 47-60) was performed (day 7 to 12). As a negative control, mice which had received oral administration of distilled water for four weeks were administered Aβ 40-1 intracerebroventricularly. The administration of olmesartan medoxomil or distilled water was continued until the end of the behavioral test. Measurements were performed as described below. • Hidden platform test: A platform is placed below the water surface of a water pool 150 cm in diameter filled with white water-colored. Mice are released into the water, and the time it takes them to reach the platform is measured. This trial is performed three times a day and for five consecutive days. As they learn, mice become able to reach the platform more quickly day by day. • Visible platform test: Mice are released into the water under such conditions that they can see the platform. The time it takes them to reach the platform is measured. • Probe test: The platform is removed, and mice are released and allowed to swim freely. Those mice with good learning/memory swim in the quadrant where the platform was located searching for the platform. The time they spent in that quadrant is measured. • Annnulus crossing: The number of times mice crossed the platform in the probe test is counted.

Aβ-injected mice [2] = assay: Cerebrovascular autoregulation (CBF versus MAP), Test Example 3; assay type: in vivo, mouse; details: Aβ-injected mice with or without treatment
Method: (§1) • Electrophysiology: Long term potentiation was measured as previously reported (Niisato K, Fujikawa A, Komai S, Shintani T, Watanabe E, Sakaguchi G, Katsuura G, Manabe T, Noda M: Age-dependent enhancement of hippocampal long-term potentiation and impairment of spatial learning through the Rho-associated kinase pathway in protein tyrosine phosphatase receptor type Z-deficient mice. J Neurosci 2005; 25:1081-1088). Transverse hippocampal slices (400 μm thick) were prepared from 5- to 10-week-old mice or from 13- to 31-week-old mice and placed in an interface-type holding chamber for at least 1 hr. […] For the analysis of EPSPs, the inventors measured their early rising phase in order to avoid contamination by voltage-dependent components as much as possible. […] The data are expressed as mean±SEM. […] Cerebral blood flow (CBF) was continuously monitored at the site of perfusion with a laser-Doppler probe positioned stereotaxically on the cortical surface and connected to a computerized data acquisition system. CBF values were expressed as percent increase relative to the resting level. Zero values for CBF were obtained after the heart was stopped by an overdose of isoflurane at the end of the experiment. • Effect of topical application of Aβ40 on functional hyperemia: The cranial window was first perfused with Ringer's solution, and CBF responses to whisker stimulation were recorded. […]

[3] = test system: hippocampus (CA1/Schaffer collaterals) of Aβ40-injected mice; assay: Long-term potentiation in hippocampal slices, Test Example 3; assay type: in vivo, mouse; details: Aβ40-injected mice with or without treatment
Method: as §1

Aβ-injected mice [4] = assay: Cerebral blood flow response to whisker stimulation (functional hyperemia), Test Example 3; assay type: in vivo, mouse; details: Aβ-injected mice with or without treatment
Method: as §1

## CCCc1nc(C(C)(C)O)c(C(=O)O)n1Cc1ccc(-c2ccccc2-c2nnn[nH]2)cc1 [olmesartan, 4-(1-hydroxy-1-methylethyl)-2-propyl-1-[4-[2-(tetrazol-5-yl)phenyl]phenyl]methylimidazole-5-carboxylic acid]
[1]
  cognitive impairment (spatial memory and learning) in Morris water maze test, overall: ameliorated
Aβ-injected mice [2]
  cerebrovascular autoregulation impaired by Aβ (relation between CBF and MABP): recovered
[3]
  long-term potentiation (LTP) in hippocampus, field potential slope after tetanic stimulation: recovery of LTP
Aβ-injected mice [4]
  Aβ-induced impairment in neurovascular coupling (CBF response to whisker stimulation): improved; also recorded: recovery of neurovascular coupling
